Reference: ChEMBL document CHEMBL1131916, “Novel series of O-substituted 8-quinolines and 4-benzothiazoles as potent antagonists of the bradykinin B2 receptors” (Bioorg Med Chem Lett, 1999)

What was measured:
B2 bradykinin receptor [1] = target: T1, B2 bradykinin receptor (Cavia porcellus, UniProt O70526); experiment: Inhibition of specific binding of [3H]BK to bradykinin B2 receptors of guinea pig ileum (GPI); format: tissue-based
T1 sequence (O70526 whole entry): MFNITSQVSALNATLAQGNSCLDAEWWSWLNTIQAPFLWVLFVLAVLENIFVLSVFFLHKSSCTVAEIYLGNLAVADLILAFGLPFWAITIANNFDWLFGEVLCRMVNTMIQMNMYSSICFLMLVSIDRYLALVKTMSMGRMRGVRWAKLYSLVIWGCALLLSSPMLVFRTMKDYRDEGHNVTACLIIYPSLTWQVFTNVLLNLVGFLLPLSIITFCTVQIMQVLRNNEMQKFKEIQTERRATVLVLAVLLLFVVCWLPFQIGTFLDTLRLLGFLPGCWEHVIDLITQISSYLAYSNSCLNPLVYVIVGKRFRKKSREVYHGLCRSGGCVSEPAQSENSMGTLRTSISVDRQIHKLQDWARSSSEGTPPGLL

B2 bradykinin receptor [2] = target: T1, B2 bradykinin receptor; experiment: Inhibition of BK-induced (4x10E-8M) contraction of isolated guinea pig ileum (GPI); format: functional, tissue-based
Oryctolagus cuniculus [3] = species: Oryctolagus cuniculus; experiment: Compound was tested for the efficacy in the inhibition of BK-induced (4x10E-8M) contraction of rabbit jugular vein (RJV); format: functional
[4] = system: B2 bradykinin receptor, Oryctolagus cuniculus; experiment: % Inhibition of BK-induced (4x10E-8M) contraction of rabbit jugular vein (RJV) at 10E-5 M concentration
Oryctolagus cuniculus [5] = species: Oryctolagus cuniculus; experiment: Compound was tested for the percent inhibition of BK-induced (4x10E-8M) contraction of rabbit jugular vein (RJV) at 10E-6 M concentration; format: functional

| Compound | IC50 (B2 bradykinin receptor [1]) | Ki (B2 bradykinin receptor [1]) | EC50 (B2 bradykinin receptor [2]) | EC50 (Oryctolagus cuniculus [3]) | inhibition [4] | Inhibition (Oryctolagus cuniculus [5]) |
| --- | --- | --- | --- | --- | --- | --- |
| COC(=O)CCCCC(=O)NCC(=O)N(C)c1ccc(OC)c(COc2cccc3ccc(C)nc23)c1SC | 47.2 nM |  | 480 nM |  | 55% |  |
| COc1ccc(N(C)C(=O)CNC(=O)/C=C/c2ccc(NC(C)=O)nc2)c(SC)c1COc1cccc2ccc(C)nc12 | 5.2 nM | 0.6 nM | 59 nM |  | 95% |  |
| COc1ccc(N(C)C(=O)CNC(=O)/C=C/c2cccc(C)c2)c(OC)c1COc1cccc2ccc(C)nc12 | 81.3 nM | 9.2 nM |  |  | 68% |  |
| CCCOc1c(N(C)C(=O)CNC(=O)/C=C/c2ccc(C(F)(F)F)cc2)ccc(OC)c1COc1cccc2ccc(C)nc12 | 32.9 nM | 3.9 nM | 220 nM |  | 82% |  |
| Cc1ccc2cccc(OCc3c(Cl)ccc(N(C)C(=O)CNC(=O)NCCCCN)c3C#N)c2n1 | 0.9 nM |  | 350 nM |  |  |  |
| Cc1ccc(/C=C/C(=O)NCC(=O)N(C)c2ccc(Cl)c(COc3cccc4sc(-c5ccccc5)nc34)c2Cl)cc1 | 11000 nM | 1300 nM | 20000 nM |  | 15% |  |
| Cc1nc2c(OCc3c(Cl)ccc(N(C)C(=O)CNC(=O)/C=C/c4ccc(C(F)(F)F)cc4)c3Cl)cccc2s1 | 23 nM | 2.8 nM | 100 nM | 76 nM |  |  |
| Cc1nc2c(OCc3c(Cl)ccc(N(C)C(=O)CNC(=O)/C=C/c4ccco4)c3Cl)cccc2s1 | 29.8 nM | 3.4 nM |  |  |  |  |
| Cc1ccc2cccc(OCc3c(C)ccc(N(C)C(=O)CNC(=O)/C=C/c4ccc(C(F)(F)F)cc4)c3C)c2n1 | 11.8 nM | 1.3 nM |  |  | 81% |  |
| COc1ccc(N(C)C(=O)CNC(=O)/C=C/c2ccc(C(F)(F)F)cc2)c(Cl)c1COc1cccc2ccc(C)nc12 | 11.5 nM | 1.3 nM | 130 nM | 260 nM |  |  |
| Cc1ccc2cccc(OCc3c(Cl)ccc(N(C)C(=O)CNC(=O)NCCCC(=O)O)c3C#N)c2n1 | 25.7 nM | 2.9 nM | 400 nM |  |  |  |
| Cc1ccc2cccc(OCc3c(Cl)ccc(N(C)C(=O)CNC(=O)/C=C/c4ccc(C(F)(F)F)cc4)c3C#N)c2n1 | 1.2 nM | 0.3 nM | 56 nM |  | 82% |  |
| CCNC(=O)NCC(=O)N(C)c1ccc(Cl)c(COc2cccc3ccc(C)nc23)c1C#N | 64.8 nM |  | 290 nM |  |  |  |
| COc1cccc(/C=C/C(=O)NCC(=O)N(C)c2ccc(Cl)c(COc3cccc4ccc(C)nc34)c2C#N)c1 | 0.7 nM | 0.1 nM | 4.1 nM |  | 78% |  |
| Cc1ccc(/C=C/C(=O)NCC(=O)N(C)c2ccc(Cl)c(COc3cccc4sc(C)nc34)c2Cl)cc1 | 14.2 nM | 1.8 nM | 23 nM | 66 nM |  |  |

More lines, main results first:

| IC50 (B2 bradykinin receptor [1]) | Ki (B2 bradykinin receptor [1]) | EC50 (B2 bradykinin receptor [2]) | EC50 (Oryctolagus cuniculus [3]) | inhibition [4] | Compound | Inhibition (Oryctolagus cuniculus [5]) |
| --- | --- | --- | --- | --- | --- | --- |
| 56.9 nM | 6.3 nM | 660 nM | 8700 nM |  | COc1ccc(/C=C/C(=O)NCC(=O)N(C)c2ccc(SC)c(COc3cccc4ccc(C)nc34)c2SC)cc1 |  |
| 393 nM | 45.4 nM | 1100 nM |  |  | COc1c(N(C)C(=O)CNC(=O)/C=C/c2ccc(C(F)(F)F)cc2)ccc(SC)c1COc1cccc2ccc(C)nc12 | 41% |
| 53.8 nM |  | 450 nM |  | 59% | CCNC(=O)NCC(=O)N(C)c1ccc(OC)c(COc2cccc3ccc(C)nc23)c1C#N |  |
| 1350 nM | 160 nM | 1300 nM |  | 17% | Cc1ccc(/C=C/C(=O)NCC(=O)N(C)c2ccc(Cl)c(COc3cccc4scnc34)c2Cl)cc1 |  |
| 77.8 nM | 9.1 nM |  |  |  | Cc1nc2c(OCc3c(Cl)ccc(N(C)C(=O)CNC(=O)OCc4ccccc4)c3Cl)cccc2s1 |  |
| 26.2 nM | 3.1 nM | 260 nM | 5200 nM |  | C=C/C=C/C(=O)NCC(=O)N(C)c1ccc(Cl)c(COc2cccc3sc(C)nc23)c1Cl |  |
| 21.9 nM | 2.5 nM | 55 nM | 28 nM |  | COc1c(N(C)C(=O)CNC(=O)/C=C/c2ccc(C(F)(F)F)cc2)ccc(Cl)c1COc1cccc2ccc(C)nc12 |  |
| 10.3 nM | 1.3 nM | 54 nM | 180 nM |  | COc1cccc(/C=C/C(=O)NCC(=O)N(C)c2ccc(Cl)c(COc3cccc4sc(C)nc34)c2Cl)c1 |  |
